According to ChEMBL document CHEMBL1201862, “PubChem BioAssay data set” (2004):
Values belong to the molecule of their own block, whether it stands above or below them. The source made the active and inactive calls.

Assays:
[1] = tested on: Escherichia coli; experiment: microbe, parasite or virus in culture
[2] = tested on: HEK293; experiment: EBV LMP1 TES2 canonical NF-kB signalling blockers – cell-based, HEK293, luciferase, cherry-pick, dose response (AID 588343); assay type: functional; conditions: Homo sapiens
[3] = target: Dual specificity tyrosine-phosphorylation-regulated kinase 1A (Rattus norvegicus, UniProt Q63470); assay type: biochemical, Homo sapiens
[4] = tested on: HEK293; experiment: cells; assay type: functional, cell-based; conditions: Homo sapiens
[5] = target: Nuclear receptor subfamily 0 group B member 1 (Homo sapiens, UniProt P51843); experiment: Luminescence-based cell-based high throughput dose response assay for inhibitors of the orphan nuclear receptor subfamily 0, group B, member 1 (DAX1; NR0B1). [Related pubchem assays (depositor defined):AID504766, AID504790]; assay type: functional
Sequence of Nuclear receptor subfamily 0 group B member 1 (P51843 whole entry): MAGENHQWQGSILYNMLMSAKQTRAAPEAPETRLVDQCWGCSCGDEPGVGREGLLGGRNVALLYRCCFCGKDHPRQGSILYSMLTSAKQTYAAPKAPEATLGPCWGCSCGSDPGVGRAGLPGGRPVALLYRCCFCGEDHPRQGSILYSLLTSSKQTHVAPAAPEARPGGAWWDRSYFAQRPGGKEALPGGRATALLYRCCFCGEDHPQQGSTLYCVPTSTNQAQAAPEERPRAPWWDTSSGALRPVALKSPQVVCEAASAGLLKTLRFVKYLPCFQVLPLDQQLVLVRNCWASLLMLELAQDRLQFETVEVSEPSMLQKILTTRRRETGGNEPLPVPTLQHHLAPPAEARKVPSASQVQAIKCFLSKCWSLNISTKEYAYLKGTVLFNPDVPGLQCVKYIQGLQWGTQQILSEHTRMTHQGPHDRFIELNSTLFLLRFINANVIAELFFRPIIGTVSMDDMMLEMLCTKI

[6] = decrease of insulin promoter-GFP reporter – imaging, high-content screening, mouse beta cells (AID 1628); assay type: functional; conditions: MIN6
[7] = tested on: BJ; experiment: BJ-TERT fibroblast viability loss – cell-based, RAS-independent, luminescence, dose response (AID 1933); assay type: functional; conditions: Homo sapiens
[8] = MIN6 cell viability loss – mouse insulinoma, cytotoxicity control, dose response (AID 2122); assay type: functional;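 also: confirmatory high-throughput counterscreen run to flag cytotoxic compounds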
[9] = tested on: BJ; experiment: cells; assay type: functional, cell-based; conditions: Homo sapiens
[10] = tested on: BJ; experiment: BJ-TERT-LT-ST fibroblast viability loss – cell-based, RAS-independent, luminescence, dose response (AID 1935); assay type: functional; conditions: Homo sapiens;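 also: BJ fibroblasts immortalized with TERT plus LT and ST oncogenes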
[11] = DRD fibroblast viability loss – cell-based, non-viral oncogenic, luminescence, dose response (AID 1934); assay type: functional; conditions: Homo sapiens
[12] = Luminescence Cell-Based Dose Retest to Confirm Inhibitors of Cancer Stem Cells. [Related pubchem assays (depositor defined):AID2717, AID2721]; assay type: functional; conditions: Homo sapiens
[13] = target: T1, Mannose-6-phosphate isomerase (Homo sapiens, UniProt P34949); experiment: phosphomannose isomerase inhibition – biochemical, fluorescence intensity, confirmation (AID 1535)
T1 sequence (P34949 whole entry): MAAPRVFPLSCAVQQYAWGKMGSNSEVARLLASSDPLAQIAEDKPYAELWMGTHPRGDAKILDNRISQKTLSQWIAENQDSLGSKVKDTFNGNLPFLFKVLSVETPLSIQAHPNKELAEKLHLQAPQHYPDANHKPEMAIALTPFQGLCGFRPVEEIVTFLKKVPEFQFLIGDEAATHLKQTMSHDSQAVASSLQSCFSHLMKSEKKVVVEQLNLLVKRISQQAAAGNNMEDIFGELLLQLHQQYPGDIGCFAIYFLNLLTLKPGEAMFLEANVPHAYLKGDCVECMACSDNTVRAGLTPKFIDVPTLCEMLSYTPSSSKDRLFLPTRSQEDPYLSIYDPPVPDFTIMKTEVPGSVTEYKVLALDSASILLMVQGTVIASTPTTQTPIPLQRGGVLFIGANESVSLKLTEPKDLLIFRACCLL

Compound: CC(Sc1nnc(-c2ccccc2F)n1C1CC1)C(=O)NCc1ccco1 (centres undefined)
- AC50 [1]: 24.4 µM (active)

Compound: CC1=C(C(=O)OCc2ccc3c(c2)OCO3)C(c2ccccc2)NC(=O)N1 (centres undefined)
- AC50 [2]: 6.3 µM (active)
- AC50 [3]: 695 nM (active)

Compound: COc1cccc(C(=O)Nc2cc([N+](=O)[O-])ccc2N2CCN(C)CC2)c1
- AC50 [1]: 25.5 µM (active)

Compound: Cc1ccc2nc(NC(=O)c3ccc(Cl)s3)sc2c1
- IC50 [4]: > 67.5 µM (inactive)
- IC50 [5]: > 67.5 µM (inactive)

Compound: O=C(CCC1CCCC1)Nc1ccc(C(=O)NCc2cccnc2)cc1
- IC50 [6]: 331 nM (active)
- EC50 [7]: > 150 µM (not active)
- IC50 [8]: > 16 µM (inactive)
- EC50 [9]: 672 nM (inconclusive)
- EC50 [10]: 1.53 µM (inconclusive)
- EC50 [11]: > 150 µM (not active)
- AC50 [12]: 882 nM (active)

- IC50 [13]: > 100 µM (inactive)
Compound: Clc1nss/c1=N\c1ncccn1
